US12390460B2, “Treatment for obesity” (1GLOBE BIOMEDICAL CO., LTD., priority 2018, dated 2025)

How the values were obtained:
human HepG2 liver cells [1] = experiment: Intracellular fat content in HepG2 cells, AdipoRed/Hoechst 33258 double staining, 24 hours; assay type: cell-based; conditions: HepG2, 0.8 mM palmitoleic acid, 0.1 μM compound, FIG. 10B; for palmitoleic acid-induced increase of intracellular triglyceride content: vs DMSO
Description: The effects of Compound 13-3-1, Compound 13-3-2, Compound 13-3-3, Compound 13-3-5, Compound 13-3-6, Compound 13-3-7, Compound 15-1, Compound 13-3-10 and Compound 13-3-11, as exemplary compounds of the invention, were tested. Human HepG2 liver cells were incubated with 0.8 mM palmitoleic acid in EMEM medium for 24 hours in the presence of 0.1 μM compounds or control vehicle, DMSO. Subsequently, the cells were washed with PBS and the intracellular fat content was measured by AdipoRed/Hoechst 33258 double staining, which was assessed by flourometry.

human HepG2 liver cells [2] = experiment: Intracellular fat content in HepG2 cells, AdipoRed/Hoechst 33258 double staining, 48 hours; assay type: cell-based; conditions: HepG2, 0.8 mM palmitoleic acid, 0.1 μM compound, FIG. 10C; for palmitoleic acid-induced increase of intracellular triglyceride content: vs DMSO
Description: And the effects of Compound 001, Compound 004, Compound 006, Compound 013, Compound 132, Compound 133 and Compound 134, as further exemplary compounds of the invention, were also tested. Human HepG2 liver cells were incubated with 0.8 mM palmitoleic acid in EMEM medium for 48 hours in the presence of 0.1 μM compounds of the invention or control vehicle, DMSO. Subsequently, the cells were washed with PBS and the intracellular fat content was measured by AdipoRed/Hoechst 33258 double staining, which was assessed by flourometry.

## Cc1[nH]c(/C=C2\C(=O)Nc3ccc(-c4csc(-c5cccnc5)n4)cc32)c(C)c1C(=O)N1CCN(C)CC1 [Compound 15-1]
Human HepG2 liver cells [1]
  inhibitory effect on fat accumulation as compared to Compound 14-3: comparable or greater
  palmitoleic acid-induced increase of intracellular triglyceride content: markedly suppressed

## [2H]C([2H])([2H])C([2H])([2H])N(C([2H])([2H])C([2H])([2H])[2H])C([2H])([2H])C([2H])([2H])NC(=O)c1c(C)[nH]c(/C=C2\C(=O)Nc3ccc(-c4csc(-c5ccccc5)n4)cc32)c1C [Compound 004]
Human HepG2 liver cells [2]
  inhibitory effect on fat accumulation as compared to Compound 14-3: comparable or greater
  palmitoleic acid-induced increase of intracellular triglyceride content: markedly suppressed

## CCN(CC)CCNC(=O)c1c(C)[nH]c(/C=C2\C(=O)Nc3cccc(-c4cnc(OC)nc4)c32)c1C [Compound 13-3-5]
Human HepG2 liver cells [1]
  inhibitory effect on fat accumulation as compared to Compound 14-3: comparable or greater
  palmitoleic acid-induced increase of intracellular triglyceride content: markedly suppressed

## CCN(CC)CCNC(=O)c1c(C)[nH]c(/C=C2\C(=O)Nc3cnc(-c4csc(-c5ccccc5)n4)cc32)c1C [Compound 13-3-10]
Human HepG2 liver cells [1]
  inhibitory effect on fat accumulation as compared to Compound 14-3: comparable or greater
  palmitoleic acid-induced increase of intracellular triglyceride content: markedly suppressed

## CCN(CC)CCNC(=O)c1c(C)[nH]c(/C=C2\C(=O)Nc3ccc(C4CCN(c5ccccc5)CC4)cc32)c1C [Compound 13-3-11]
Human HepG2 liver cells [1]
  inhibitory effect on fat accumulation as compared to Compound 14-3: comparable or greater
  palmitoleic acid-induced increase of intracellular triglyceride content: markedly suppressed

## CCN(CC)CCNC(=O)CCc1c(C)[nH]c(/C=C2\C(=O)Nc3ccc(-c4csc(-c5ccccc5)n4)cc32)c1C [Compound 13-3-7]
Human HepG2 liver cells [1]
  inhibitory effect on fat accumulation as compared to Compound 14-3: comparable or greater
  palmitoleic acid-induced increase of intracellular triglyceride content: markedly suppressed

## [2H]c1c([2H])c([2H])c(-c2nc(-c3ccc4c(c3)/C(=C/c3[nH]c(C)c(C(=O)NC([2H])([2H])C([2H])([2H])N(CC)CC)c3C)C(=O)N4)cs2)c([2H])c1[2H] [Compound 013]
Human HepG2 liver cells [2]
  inhibitory effect on fat accumulation as compared to Compound 14-3: comparable or greater
  palmitoleic acid-induced increase of intracellular triglyceride content: markedly suppressed

## CCN(CC)CCNC(=O)c1c(C)[nH]c(/C=C2\C(=O)Nc3ccc(-c4csc(Nc5ccccc5)n4)cc32)c1C [Compound 13-3-1]
Human HepG2 liver cells [1]
  inhibitory effect on fat accumulation as compared to Compound 14-3: comparable or greater
  palmitoleic acid-induced increase of intracellular triglyceride content: markedly suppressed

## [2H]C([2H])(NC(=O)c1c(C)[nH]c(/C=C2\C(=O)Nc3ccc(-c4csc(-c5ccccc5)n4)cc32)c1C)C([2H])([2H])N(CC)CC [Compound 001]
Human HepG2 liver cells [2]
  inhibitory effect on fat accumulation as compared to Compound 14-3: comparable or greater
  palmitoleic acid-induced increase of intracellular triglyceride content: markedly suppressed

## [2H]c1c([2H])c([2H])c(-c2nc(-c3ccc4c(c3)/C(=C/c3[nH]c(C)c(C(=O)NC([2H])([2H])C([2H])([2H])N(C([2H])([2H])C([2H])([2H])[2H])C([2H])([2H])C([2H])([2H])[2H])c3C)C(=O)N4)cs2)c([2H])c1[2H] [Compound 006]
Human HepG2 liver cells [2]
  inhibitory effect on fat accumulation as compared to Compound 14-3: comparable or greater
  palmitoleic acid-induced increase of intracellular triglyceride content: markedly suppressed

## CCN(CC)CCNC(=O)c1c(C)[nH]c(/C=C2\C(=O)Nc3ccc(-c4csc(N5CCCCC5)n4)cc32)c1C [Compound 13-3-2]
Human HepG2 liver cells [1]
  inhibitory effect on fat accumulation as compared to Compound 14-3: comparable or greater
  palmitoleic acid-induced increase of intracellular triglyceride content: markedly suppressed

## CCN(CC)CCC(=O)N1CCN(c2ccc(/C=C3\C(=O)Nc4ccc(-c5csc(-c6ccccc6)n5)cc43)cc2)CC1 [Compound 13-3-6]
Human HepG2 liver cells [1]
  inhibitory effect on fat accumulation as compared to Compound 14-3: comparable or greater
  palmitoleic acid-induced increase of intracellular triglyceride content: markedly suppressed
